Reference: patent publication US20160347739A1, “5-OXOPYRROLIDINE DERIVATIVES AS HIV INTEGRASE INHIBITORS” (priority 2014, published 2016)
Entries after “also recorded” stand apart in the source; their conditions may differ.

Biological target: T1, eGFP-MBP-IN-WT (HIV-1 integrase fusion protein) (Human immunodeficiency virus type 1 group M subtype B, UniProt P04585)
T1 construct: as well as integrase wild type (eGFP-MBP-IN-WT) DNA plasmid; expressed in transfected cells; host or cells: HEK 293T cells; plasmid from Dr. Mark A. Muesing (Rockefeller University)
Assay: cellular integrase screening assay (C-terminal domain of HIV-1 IN nuclear import inhibition)
Assay type: cell-based
Settings: HEK 293T cells transfected with eGFP-MBP-IN-WT plasmid; compounds at 10, 3.3, 1.1 and 0.33 μM, 0.1% DMSO; fluorescence microscopy
Procedure: In assessing suitability of a compound according to any of the formulas herein, an integrase screening assay can be conducted. In the present case, an exemplary such assay is a cellular integrase assay. A cellular integrase assay can be performed in a 24 well plate. The assay is designed to test compounds in 3-fold serial dilutions (10, 3.3, 1.1 and 0.33 μM) with 0.1% DMSO. Negative and positive control included eGFP-MBP-IN-R262/3/6A, eGFP-MBP-IN-K236/240 and eGFP-MBP-IN-WT respectively supplemented with 0.1% DMSO. Refinement of the assay for optimal results is feasible. For example, refinement herein yields the following protocol. HEK 293T cells (˜0.4*10̂5 cells/ml) are seeded and incubated at 37° C. (5% CO2) for ˜3 days on Poly-L-lysine treated glass coverslips until 80-90% confluent (˜3.2*10̂5 cells/ml). […] Images may be prepared using an Olympus 1X51 fluorescence microscope equipped with a camera by way of example. […]
As an integrase screening assay, a cellular integrase assay was performed in a 24 well plate. […] Slides were visualized and images, of at least 2 fields per glass disk, were taken with an Olympus 1X51 fluorescence microscope equipped with a camera. […]

With “N-(3-ethoxy propyl)-1-[2-(5-methyl-1H-indol-3-yl)ethyl]-5-oxopyrrolidine [compound 209]” the “localization phenotype of eGFP-MBP-IN-WT fusion protein (inhibition of nuclear import of IN)” value was “nuclear exclusion of the fusion protein; also recorded: exhibited inhibition against HIV to prevent nuclear import of the HIV integrase; also recorded: inhibition of nuclear import of IN”.
